Values of other authors in patent US8377888B2, “Method of predicting the clinical response to cisplatin or carboplatin chemotherapeutic treatment” (Pangaea Biotech, S.A., priority 2005, dated 2013).

How the values were obtained:
[1] = system: MKN74 (14-3-3σ methylation-positive, wild-type p53)
[2] = system: MKN28 (14-3-3σ methylation-positive, mutated p53)
[3] = system: 14-3-3σ methylation-negative cell lines; details: wild-type or mutated p53
[4] = system: Colon carcinoma cells lacking 14-3-3σ; details: cells initiate but do not maintain G2 arrest
[5] = system: non-small cell lung cancer (NSCLC); details: per arm of randomized study

In the case of COc1cccc2c1C(=O)c1c(O)c3c(c(O)c1C2=O)C[C@@](O)(C(=O)CO)C[C@@H]3O[C@H]1C[C@H](N)[C@H](O)[C@H](C)O1 [adriamycin], the Sensitivity to adriamycin [1] is given as “highly sensitive”, the Sensitivity to adriamycin [2] is given as “highly sensitive” and the Sensitivity to adriamycin [3] is given as “resistant”. For the same compound, the “Cell fate after adriamycin treatment” value [4] was “mitotic catastrophe and cell death”.

In the case of paclitaxel/carboplatin, the Median survival [5] is listed as 8.2 months.
